From patent publication US12551471B2, “ABT-751 and ionizing radiation” (Stichting Het Nederlands Kanker Instituut-Antoni van …, priority 2020, dated 2026)
“Also recorded” adds a separate entry of the source.

How the values were obtained:
[1] = test system: GSC457 tumors and healthy surrounding brain tissue; assay: Immunohistochemistry for DNA damage and apoptosis markers, on-treatment samples, orthotopic GSC457 tumors; type: in vivo, mice; settings: ABT-751 prior to radiotherapy
[2] = test system: tumor cells from various origins; assay: Clonogenic assays with ionizing radiation (radiosensitization); type: cell-based
Method: Using clonogenic assays, we confirmed that induction of mitotic enrichment by ABT-751 radiosensitizes tumor cells from various origins. To achieve induction of mitotic enrichment, we exposed cells to 1 μM of ABT-751 for 6 hours, at which time we exposed cells to a dose range of ionizing radiation (FIG. 4A). Directly after irradiation, we washed ABT-751 away and waited for 18 hours before the process was repeated. In total, the process of induction of mitotic enrichment and subsequent irradiation was repeated 4 times to resemble a clinical hyperfractionation schedule. After the last fraction, cells were left to grow out into viable colonies and clonogenic potential was quantified. […] In the first set-up, we irradiated cells prior to exposure to ABT-751 (FIG. 5A). In the second approach, we irradiated cells prematurely after only 1 hour of exposure to ABT-751 while maintaining the total exposure time of ABT-751 at 6 hours (FIG. 5B).

[3] = test system: GSC457 brain cancer cells; assay: Mitotic enrichment (p-H3 immunohistochemistry) in orthotopic GSC457 brain tumors; type: in vivo, mice
Method: To study the pharmacokinetic-pharmacodynamic relationship of ABT-751 in vivo, we made use of a genetically engineered mouse model-derived brain cancer model that was previously established in our lab. We implanted these GSC457 brain cancer cells in the brains of recipient mice and followed up their growth using bioluminescence imaging. When full-blown tumors had established, we treated tumor-bearing mice with different doses of ABT-751 and collected their brains 6 hours or 24 hours after administration. […] We next aimed to confirm whether repeated induction of mitotic enrichment was feasible and efficient in vivo. Using the same murine brain cancer model as described above, we quantified the number of mitotic cells in tumors 6 hours after administration of one dose of 50 mg/kg of ABT-751 and compared the levels to those in tumors 6 hours after receiving a second administration of 50 mg/kg of ABT-751 either 24 or 48 hours after the first administration. We again confirmed that mitotic enrichment can efficiently be induced by ABT-751 in brain cancer in vivo (FIG. 8). […] In the clinic, the standard-of-care for glioblastoma—the most common and aggressive adult brain cancer—involves ionizing radiation and concomitant alkylating chemotherapy using temozolomide. Therefore, we next confirmed that induction of mitotic enrichment in vivo using ABT-751 is compatible with chemo-radiotherapy.

[4] = test system: various cancer cell lines; assay: Cell survival assay; type: cell-based; settings: 1 μM ABT-751, up to 10 hours of exposure
From the text: Importantly, induction of mitotic enrichment could be achieved without inducing cytotoxicity.

[5] = test system: U87 human brain cancer cell line; assay: Radiosensitization efficacy study, orthotopic U87 model; type: in vivo, mice
From the text: This U87 model is more intrinsically radiosensitive and was therefore irradiated with fractions of 1 Gy instead of 4 Gy as used above.

[6] = test system: GBM8 tumors; assay: Radiosensitization efficacy study, orthotopic GBM8 model; type: in vivo, mice
Method: (§1) Mice bearing these GBM8 tumors were stratified between 5 treatment arms: • 1. Control treatment, • 2. 100 mg/kg daily ABT-751 for 4 days/week for 6 consecutive weeks • 3. 4 1 Gy of ionizing radiotherapy (RT) for 4 days/week for 6 consecutive weeks • 4. ABT-751 given 6 hours prior to RT for 4 days/week for 6 consecutive weeks • 5. RT administered prior to ABT-751 for 4 days/week for 6 consecutive weeks
(§2) The growth of these tumors could be followed up using bioluminescence imaging.

[7] = Plasma and brain concentration after oral administration (LC-MS/MS); type: in vivo; settings: mice, oral 50 mg/kg
Method: In order to facilitate the in vivo translation of the radiosensitization approach, we first established the dose level that achieved clinically relevant plasma concentrations in mice. Using a validate LC-MS/MS method, we measured the plasma concentration—time curve in mice following oral administration of 50 mg/kg ABT-751 in formulation containing DMSO:Cremophor EL:H2O (1:1:8).

[8] = test system: cancer cell lines of various origins (brain, colorectal, prostate, head & neck and cervical cancer); assay: Flow cytometric cell cycle analysis (propidium iodide and phospho-histone H3 staining); type: cell-based
Method: We first studied whether ABT-751 increases the mitotic population of cancer cell lines (FIG. 1). Several lines of various origins—brain, colorectal, prostate, head & neck and cervical cancer—were exposed to a dose range of ABT-751 and incubated for 6 hours, after which the cell cycle was analyzed by flow cytometry. […] This analysis confirmed that ABT-751 dose-dependently increases the mitotic population of cancer cell lines at the expense of the relatively radio-resistant G1 population. […] This shift in cell cycle distribution will hereafter be referred to as induction of mitotic enrichment. […] Importantly, the G2 phase of the cell cycle is unaffected. […] In the first set-up, we irradiated cells prior to exposure to ABT-751 (FIG. 5A). In the second approach, we irradiated cells prematurely after only 1 hour of exposure to ABT-751 while maintaining the total exposure time of ABT-751 at 6 hours (FIG. 5B).

[9] = Animal weights throughout efficacy studies; type: in vivo; settings: mice bearing orthotopic GSC457, U87 or GBM8 tumors
From the text: Finally, to investigate whether the mitotic enrichment strategy using ABT-751 induced toxicity in healthy tissues we studied several parameters.

[10] = test system: GSC457 tumors; assay: Radiosensitization efficacy study, orthotopic GSC457 tumors; type: in vivo, mice; settings: 4 weeks
Method: as §1, with “The first model is described above and was also used to study the […] relationship in FIGS. 7-9. Mice” for “Mice”, “these GSC457” for “these GBM8”, “2. 50” for “2. 100”, “for 4” for “for 6”, “4” for “4 1”
as §2

[11] = healthy surrounding brain tissue
[12] = cells irradiated prior to exposure to ABT-751
[13] = ABT-751 6 hours prior to RT, versus radiotherapy
[14] = ABT-751 alone, 100 mg/kg daily, 4 days/week, 6 weeks
[15] = dose range of ABT-751, incubated for 6 hours
[16] = two brain cancer cell lines, 1 μM for up to 8 hours, washed away, followed until 48 hours

COc1ccc(S(=O)(=O)Nc2cccnc2Nc2ccc(O)cc2)cc1 [ABT-751, N-[2-(4-hydroxyanilino)-3-pyridinyl]-4-methoxybenzenesulfonamide]
DNA damage (yH2A.X) [1, 11]: did not increase DNA damage (yH2A.X) | apoptosis (cleaved-Caspase 3) [1, 11]: did not increase | apoptosis ([1]; in the tumor, compared to radiotherapy alone): did strongly increase apoptosis specifically in the tumor compared to radiotherapy alone | clonogenic potential (radiosensitization) ([2]; 1 μM ABT-751 for 6 hours before ionizing radiation, repeated 4 times): radiosensitizes cancer cells of various origins | clonogenic potential (radiosensitization) ([2]; cells irradiated after only 1 hour of exposure, total exposure 6 hours): In neither of the sequences radiosensitizing effects of ABT-751 were observed | clonogenic potential (radiosensitization) [2, 12]: In neither of the sequences radiosensitizing effects of ABT-751 were observed | mitotic population ([3]; all doses, 24 hours after administration): reverted to baseline levels | mitotic enrichment in brain tumors (p-H3 staining) ([3]; different doses, brains collected 6 hours after administration): dose-dependently induced mitotic enrichment in brain tumors in vivo | mitotic enrichment ([3]; given concomitantly with chemo-radiotherapy involving temozolomide): can induce mitotic enrichment | mitotic enrichment ([3]; given concomitantly with radiotherapy alone): can induce mitotic enrichment | doses achieving the most clear increases in mitotic enrichment ([3]; p-H3 staining, GSC457 tumors): ≥ 50 mg/kg | repeated induction of mitotic enrichment ([3]; second 50 mg/kg dose 24 or 48 hours after the first, 6 hours after administration): feasible without loss of efficiency when a waiting period of 24 hours or longer is observed between subsequent doses | viability (cytotoxicity) [4]: No loss of viability was observed up to 10 hours of exposure | survival benefit ([5]; ABT-751 6 hours prior to RT, fractions of 1 Gy): doubled the survival benefit that was achieved by RT alone | survival benefit ([5]; ABT-751 administered after RT): did not achieve a survival benefit | survival [6, 13]: extended survival | tumor growth [6, 13]: further slowed down tumor growth | efficacy (tumor growth, survival) ([6]; ABT-751 administered after radiotherapy): Increased efficacy could not be observed | survival [6, 14]: did not affect | tumor growth [6, 14]: did not affect tumor growth | concentration in the brain ([7]; 8 hours after administration, 50 mg/kg): still in the range of the concentration that is sufficient to induce mitotic enrichment in vitro; also recorded: supersede the concentration required to achieve mitotic enrichment in vitro for up to 8 hours | plasma concentration ([7]; DMSO:Cremophor EL:H2O (1:1:8)): in the range of those achieved in patients at a clinically safe dose levels for up to 8 hours | mitotic enrichment [8, 12]: could not induce mitotic enrichment when cells were irradiated prior to exposure | G1 cells (DNA 2N, pHH3-) [8, 15]: at the expense of G1 cells | S phase cells (DNA 2N-4N, pHH3-) [8, 15]: stay unaffected | amount of G2 cells (DNA 4N, pHH3-) [8, 15]: appears to increase slightly | percentage of mitotic cells (DNA 4N, pHH3+) [8, 15]: dose-dependently increases the percentage of mitotic cells | G2 phase of the cell cycle [8, 16]: unaffected | mitotic population over time and after wash-out (reversibility) [8, 16]: induces a time-dependent increase of the mitotic population that reverts back to pre-exposure levels after the drug is removed | concentration at which maximum achievable mitotic enrichment was achieved ([8]; within 6 hours, all cell lines tested): 1 µM | weight of mice [9]: no treatment-related weight loss | effect of RT on tumor growth and mouse survival ([10]; 50 mg/kg ABT-751 6 hours prior to 4 Gy RT, 4 days/week): could be enhanced by given ABT-751 6 hours prior to every fraction of radiotherapy | radiosensitizing effect ([10]; RT administered prior to ABT-751, 4 days/week): a similar radiosensitizing effect could not be observed
